Where two headings read alike, the source gives them in different places.
Tests used:
[1] = tested on: Du145 cells; assay: Calcein AM cytotoxicity assay, Du145; assay type: cell-based; conditions: Homo sapiens
Source text: (§1) Five serial 1:2 dilutions were made with anhydrous DMSO at 100× the final concentration used in the assay.

[2] = tested on: Du145 cells; assay: Cell Titer-Glo cytotoxicity assay, Du145; assay type: cell-based; conditions: Homo sapiens
Source text: as §1

[3] = tested on: HCT-116 cells; assay: Calcein AM cytotoxicity assay, HCT-116; assay type: cell-based; conditions: Homo sapiens
Source text: as §1

[4] = tested on: HCT-116 cells; assay: Cell Titer-Glo cytotoxicity assay, HCT-116; assay type: cell-based; conditions: Homo sapiens
Source text: as §1

[5] = tested on: Hep3B cells; assay: Calcein AM cytotoxicity assay, Hep3B; assay type: cell-based; conditions: Homo sapiens, 72 h
Source text: as §1

[6] = tested on: Hep3B cells; assay: Cell Titer-Glo cytotoxicity assay, Hep3B; assay type: cell-based; conditions: Homo sapiens, 72 h
Source text: as §1

[7] = tested on: SF-268 cells; assay: Calcein AM cytotoxicity assay, SF-268; assay type: cell-based; conditions: Homo sapiens
Source text: as §1

[8] = tested on: SF-268 cells; assay: Cell Titer-Glo cytotoxicity assay, SF-268; assay type: cell-based; conditions: Homo sapiens
Source text: as §1

[9] = tested on: SK-OV-3 cells; assay: Calcein AM cytotoxicity assay, SK-OV-3; assay type: cell-based; conditions: Homo sapiens
Source text: as §1

[10] = tested on: SK-OV-3 cells; assay: Cell Titer-Glo cytotoxicity assay, SK-OV-3; assay type: cell-based; conditions: Homo sapiens
Source text: as §1

[11] = tested on: NCI/ADR RES cells; assay: Calcein AM cytotoxicity assay, NCI/ADR-RES; assay type: cell-based; conditions: Homo sapiens, 72 h
Source text: as §1

[12] = tested on: NCI/ADR RES cells; assay: Cell Titer-Glo cytotoxicity assay, NCI/ADR-RES; assay type: cell-based, human; conditions: Homo sapiens, NCI/ADR-RES, 72 h
Source text: as §1

[13] = tested on: NCI-H460 cells; assay: Calcein AM cytotoxicity assay, NCI-H460; assay type: cell-based; conditions: Homo sapiens
Source text: as §1

[14] = tested on: NCI-H460 cells; assay: Cell Titer-Glo cytotoxicity assay, NCI-H460; assay type: cell-based, human; conditions: Homo sapiens
Source text: as §1

[15] = tested on: MCF7 cells; assay: Calcein AM cytotoxicity assay, MCF7; assay type: cell-based; conditions: Homo sapiens
Source text: as §1

[16] = tested on: MCF7 cells; assay: Cell Titer-Glo cytotoxicity assay, MCF7; assay type: cell-based, human; conditions: Homo sapiens
Source text: as §1

[17] = tested on: NmuMG mouse mammary normal epithelial cells; assay: Calcein AM cytotoxicity assay, NmuMG; assay type: cell-based; conditions: Epithelial cell, 72 h
Source text: as §1

[18] = tested on: NmuMG mouse mammary normal epithelial cells; assay: Cell Titer-Glo cytotoxicity assay, NmuMG; assay type: cell-based; conditions: Mus musculus, Epithelial cell, 72 h
Source text: as §1

[19] = tested on: HT-29 cells; assay: MTT cytotoxicity assay, HT-29; assay type: cell-based; conditions: Homo sapiens
Source text: The IC50 value for each library member represents at least twelve replicates of dose-response experiments conducted over five concentrations. […] In this assay, live cells were distinguished by the intracellular enzymatic activity that converts the cell-permeable molecule MTT to strongly colored formazan crystals, which are retained within live cells and absorb light at 570 nm.
MTT Cytotoxicity Assay. HT-29 cell lines were maintained in RPMI medium 1640 supplemented with 10% (wt/vol) FBS and 1% penicillin-streptomycin (PS) (100 units/mL and 100 μg/mL). Cells were harvested by trypsinization using 0.25% trypsin and 0.1% EDTA and plated at a density of 2,000-5,000 cells per well of each 96-well microtiter plate. Cells were grown for 24 h at 37° C., with 5% CO2/95% air in a humidified incubator to allow cell attachment to occur before compound addition. Library members were stored at −20° C. under desiccating conditions before the assay. Library member stocks (1000×) were prepared in falcon tubes (BD Biosciences). Five dilutions were made with DMSO at 1000× the final concentration used in the assay. The 1000× stocks (3 μL) were diluted with complete culture medium (3 mL). Each plate contained twelve replicates of cells treated with 0.1% DMSO in complete cell culture medium that served as an individual negative control. Library member stocks (1×, 200 μL) were added to aspirated cells and replicated twelve times on each plate. Cells were incubated with the library members for 24 h before optical density reading. Test plates were removed from the incubator and washed once in sterile PBS to remove serum containing library members. Freshly-made 10×MTT solution in sterile PBS (5 mg/mL) was diluted 1:10 in serum-free culture medium and was sterilized using a 0.2 μm filter. Diluted MTT solution (1×, 50 μL) was added to each well and the plates were incubated in the dark for 2 h. Test plates were centrifuged at 1800×g for 5 min at 4° C. using a Beckman GPR centrifuge. MTT solution was removed by aspiration and 100 μL DMSO was added to each well to lyse cells and solubilize formazan crystals. Test plates were incubated in the dark at room temperature for 10 min. Plates were read for optical density at 570 nm.
IC50 Calculations. For each library member, at least three dose-response experiments were conducted on separate plates. […] To calculate IC50, percent inhibitions were plotted as a function of log[concentration] and then fit to a four-parameter logistic model that allowed for a variable Hill slope by using XLFIT 4.1 (ID Business Solutions, Emeryville, Calif.).

[20] = tested on: human cancer cell lines; assay: Cytotoxicity across the panel of human cancer cell lines (average, high-throughput assays); assay type: cell-based; conditions: for IC50: read-out: Cancerous Average IC50 / Average IC50 in Cancer Cell Lines
Source text: as §1

[21] = DU-145, Du145, Calcein AM, 72 h, read-out: IC50
[22] = DU-145, Du145, Cell Titer-Glo, 72 h, read-out: IC50
[23] = HCT-116, Calcein AM, 72 h, read-out: IC50
[24] = HCT-116, Cell Titer-Glo, 72 h, read-out: IC50
[25] = SF-268, Calcein AM, 72 h, read-out: IC50
[26] = SF-268, Cell Titer-Glo, 72 h, read-out: IC50
[27] = SK-OV-3, Calcein AM, 72 h, read-out: IC50
[28] = SK-OV-3, Cell Titer-Glo, 72 h, read-out: IC50
[29] = NCI-H460, Calcein AM, 72 h, read-out: IC50
[30] = NCI-H460, Cell Titer-Glo, 72 h, read-out: IC50
[31] = MCF7, Calcein AM, 72 h, read-out: IC50
[32] = MCF7, Cell Titer-Glo, 72 h, read-out: IC50
[33] = NmuMG, Calcein AM, read-out: IC50
[34] = NmuMG, Cell Titer-Glo, read-out: IC50
[35] = HT-29, MTT, 24 h, read-out: IC50
[36] = average across eight human cancer cell lines, MTT (HT-29) values excluded

S=C=NCC(c1ccccc1)c1ccccc1 [Compound 40, 2-isothiocyanato-1,1-diphenylethane]
IC50 [1, 21]: 3.51 µM | IC50 [2, 22]: 3.65 µM | IC50 [3, 23]: 3.26 µM | IC50 [4, 24]: 1.22 µM | IC50 ([5]; Calcein AM, read-out: IC50): 3.58 µM | IC50 ([6]; Cell Titer-Glo, read-out: IC50): 4.3 µM | IC50 [7, 25]: 3.49 µM | IC50 [8, 26]: 3.33 µM | IC50 [9, 27]: 5.26 µM | IC50 [10, 28]: 4.52 µM | IC50 ([11]; Calcein AM, read-out: IC50): 3.95 µM | IC50 ([12]; Cell Titer-Glo, read-out: IC50): 4.47 µM | IC50 [13, 29]: 9.91 µM | IC50 [14, 30]: 5.64 µM | IC50 [15, 31]: 3.62 µM | IC50 [16, 32]: 3.68 µM | IC50 [17, 33]: 5.81 µM | IC50 [18, 34]: 3.62 µM | IC50 [19, 35]: 22.9 µM | further fold increase in potency from multiple phenyl rings ([20]; average IC50 compared with single-ring 23 and 38): ~2 fold | IC50 [20, 36]: 4.11 µM

C[S+]([O-])CCCCN=C=S (stereo not shown) [Compound 2, 1-isothiocyanato-4-(methylsulfinyl) butane, reference compound]
IC50 ([1]; DU-145, 72 h): 5.25 µM | IC50 ([2]; DU-145, 72 h): 6.1 µM | IC50 ([3]; HCT-116, 72 h): 2.94 µM | IC50 ([4]; HCT-116, 72 h): 3.58 µM | IC50 [5]: 4.13 µM | IC50 [6]: 4.48 µM | IC50 ([7]; SF-268, 72 h): 11 µM | IC50 ([8]; SF-268, 72 h): 6.16 µM | IC50 ([9]; SK-OV-3, 72 h): 7.6 µM | IC50 ([10]; SK-OV-3, 72 h): 4.67 µM | IC50 [11]: 8.89 µM | IC50 [12]: 8.98 µM | IC50 ([13]; NCI-H460, 72 h): 8.74 µM | IC50 ([14]; NCI-H460, 72 h): 5.94 µM | IC50 ([15]; MCF7, 72 h): 3.14 µM | IC50 ([16]; MCF7, 72 h): < 3.13 µM | IC50 [17]: 6.86 µM | IC50 [18]: 6.59 µM | IC50 ([19]; HT-29, 24 h): 45.2 µM | selectivity for cancer cells over NmuMG cells [20]: 1.3 fold | IC50 ([20]; Homo sapiens): 5.26 µM

COc1cc(OC)c(CN=C=S)c(OC)c1 [Compound 28, 2-(isothiocyanatomethyl)-1,3,5-trimethoxybenzene]
IC50 [1, 21]: 2.54 µM | IC50 [2, 22]: 4.8 µM | IC50 [3, 23]: 9.23 µM | IC50 [4, 24]: 4.55 µM | IC50 ([5]; Calcein AM, read-out: IC50): 1.87 µM | IC50 ([6]; Cell Titer-Glo, read-out: IC50): 3.21 µM | IC50 [7, 25]: 4.61 µM | IC50 [8, 26]: 3.05 µM | IC50 [9, 27]: 3.93 µM | IC50 [10, 28]: 4.75 µM | IC50 ([11]; Calcein AM, read-out: IC50): 12 µM | IC50 ([12]; Cell Titer-Glo, read-out: IC50): 15.2 µM | IC50 [13, 29]: 11.9 µM | IC50 [14, 30]: 10.8 µM | IC50 [15, 31]: 5.75 µM | IC50 [16, 32]: 3.15 µM | IC50 [17, 33]: 2.94 µM | IC50 [18, 34]: 2.09 µM | IC50 [19, 35]: 17 µM | IC50 [20, 36]: 6.53 µM

S=C=NCc1ccccc1 [Compound 23, 1-(isothiocyanatomethyl)benzene]
IC50 [1, 21]: 5.37 µM | IC50 [2, 22]: 4.64 µM | IC50 [3, 23]: 11.5 µM | IC50 [4, 24]: 3.19 µM | IC50 ([5]; Calcein AM, read-out: IC50): 22.5 µM | IC50 ([6]; Cell Titer-Glo, read-out: IC50): 9.7 ± 0.37 µM | IC50 [7, 25]: 11.5 µM | IC50 [8, 26]: 8.27 µM | IC50 [9, 27]: 7.18 µM | IC50 [10, 28]: 8.86 µM | IC50 ([11]; Calcein AM, read-out: IC50): 15.5 µM | IC50 ([12]; Cell Titer-Glo, read-out: IC50): 11.5 ± 0.77 µM | IC50 [13, 29]: 22.9 µM | IC50 [14, 30]: 14.5 µM | IC50 [15, 31]: 16 µM | IC50 [16, 32]: 10.6 µM | IC50 [17, 33]: < 12.5 µM | IC50 [18, 34]: 15.4 µM | IC50 [19, 35]: 31.4 µM | fold increase in potency versus fully-saturated 18 ([20]; average IC50 compared): > 3 fold | IC50 [20, 36]: 9.47 µM

C[S+]([O-])CCCCN=C=S (racemic) [Compound 13, 1-isothiocyanato-4-(methylsulfinyl)butane]
IC50 [1, 21]: 6.25 µM | IC50 [2, 22]: 8.62 µM | IC50 [3, 23]: 6.13 µM | IC50 [4, 24]: 4.81 µM | IC50 [5]: < 3.13 µM | IC50 ([6]; Cell Titer-Glo, read-out: IC50): 2.75 µM | IC50 [7, 25]: 5.69 µM | IC50 [8, 26]: 6.22 µM | IC50 [9, 27]: 5.65 µM | IC50 [10, 28]: 9.9 µM | IC50 ([11]; Calcein AM, read-out: IC50): 13.1 µM | IC50 ([12]; Cell Titer-Glo, read-out: IC50): 16.5 µM | IC50 [13, 29]: 13 µM | IC50 [14, 30]: 10.1 µM | IC50 [15, 31]: 7.28 µM | IC50 [16, 32]: 8.59 µM | IC50 [17, 33]: 5.61 µM | IC50 [18, 34]: 3.2 µM | IC50 [19, 35]: 46.4 µM | IC50 [20, 36]: 7.61 µM

Source: patent US20080312164A1 (priority 2006, published 2008)
